These are literature values, as cited in patent US20070265345A1, “Novel Biphenyl Compounds And Their Use” (SMITHKLINE BEECHAM CORPORATION, priority 2004, published 2007).

The test system of this data set is A549 cells.
As for `O=c1[nH]cc(F)c(=O)[nH]1` [5-fluorouracil], the concentration for 50% growth inhibition (GI50) was 1000 nM. As for `COc1cccc2c1C(=O)c1c(O)c3c(c(O)c1C2=O)C[C@@](O)(C(=O)CO)C[C@@H]3O[C@H]1C[C@H](N)[C@H](O)[C@H](C)O1` [doxorubicin], the GI50 was 63 nM.

`NC(=O)NO` [hydroxyurea]: the GI50 was 500000 nM. Consider `CC(=O)O[C@H]1C(=O)[C@@]2(C)[C@H]([C@H](OC(=O)c3ccccc3)[C@]3(O)C[C@H](OC(=O)[C@H](O)[C@@H](NC(=O)c4ccccc4)c4ccccc4)C(C)=C1C3(C)C)[C@]1(OC(C)=O)CO[C@@H]1C[C@@H]2O` [paclitaxel], for which the GI50 is 4 nM.

Usually GI50 stands for the concentration at which growth is held to half of that of the control.
